According to US7247645B2, “Dihydropyridine derivatives” (Ajinomoto Co., Inc., priority 1999, dated 2007):
Like-named read-outs stand apart in the source and are kept apart here.

What was measured:
N-type calcium channel [1] = target: T1, N-type calcium channel (Homo sapiens, UniProt Q00975); experiment: Antagonistic activity on N-type calcium channel (fluorescence dye method), IMR-32 cells, in presence of 1 μM Nifedipine; assay type: cell-based; conditions: 60 mM KCl stimulation, 0.1, 1 or 10 μM test compound, Table 9, read-out: N-type inhibition pIC50 (converted)
Procedure: (§1) The medium used was a Phenol Red-free Eagle minimum essential medium (GIBCO) containing earle's salts supplement, 2 mM of L-glutamine (GIBCO), 1 mM of sodium pyruvate (pH 6.5) (GIBCO), antibiotic/antimicotic mixture (GIBCO) and 10% fetal calf serum (Cell Culture Technologies). 3 ml of 1×10^5/ml IMR-32 cells were spread on a glass dish (Iwaki Glass Co., Ltd.) having a diameter of 35 mm which was treated with poly-D-lysin (SIGMA) and collagen (COLLAGEN VITROGEN 100, Collagen Co.). After the culture for 2 days, 1 mM (final concentration) of dibutyl cAMP and 2.5 μM of bromodeoxyuridine (SIGMA) were added. After the culture for additional 10 to 14 days, the cells were subjected to the activity determination. The medium for IMR-32 cells thus prepared was replaced with 1 ml of Phenol Red-free Eagle minimum essential medium (GIBCO) containing […] 10 μM fura-2/AM (Dojin Kagaku, Co.) and earle's salts supplement, and the incubation was conducted at 25° C. for 1 hour.
(§2) Then the medium was replaced with Phenol Red-free Eagle minimum essential medium (GIBCO) containing earle's salts supplement, from which fura-2/AM had been removed. After the incubation at 37° C. for 1 hour, the medium was replaced with a recording medium (20 mM of HEPES-KOH, 115 mM of NaCl, 5.4 mM of KCl, 0.8 mM of MgCl2, 1.8 mM of CaCl2 and 13.8 mM of D-glucose). Antagonistic activity on N-type calcium channel was determined and analyzed by using a fluorescence microscope (Nikon Corporation) and an image analysis device ARGUS 50 (Hamamatsu Photonics). In particular, a recording medium (20 mM of HEPES-KOH, 115 mM of NaCl, 5.4 mM of KCl, 0.8 mM of MgCl2, 1.8 mM of CaCl2 and 13.8 mM of D-glucose) containing 1 μM of Nifedipine was given to the cells by reflux by a Y-tube method. Then a stimulating agent containing 60 mM of potassium chloride was rapidly given by the Y-tube method. Thereafter stimulating agents containing 60 mM of potassium chloride and 0.1, 1 or 10 μM of test compound were successively rapidly given by the Y-tube method to determine the antagonistic activity on the channel. Finally, a stimulating agent containing 60 mM of potassium chloride and 1 μM of omega conotoxin GVIA (Peptide institute, inc.) was rapidly given by the Y-tube method to realize a condition of 100% inhibition of N-type calcium channel.

L-type calcium channel = target: T2, L-type calcium channel (Rattus norvegicus, UniProt P22002); experiment: Antagonistic activity on L-type calcium channel: relaxation of KCl contraction of rat thoracic aorta samples; conditions: High K+ (50 mM KCl) contraction
T2 construct: The slips of thoracic aorta extracted from a Sprague-Dawry rat was used; from tissue; host or cells: rat (Sprague-Dawley) thoracic aorta rings, endothelium removed
Procedure: The activity of the dihydropyridine derivatives of the present invention to inhibit L-type calcium channel was determined by the following method in which the relaxation reaction on the KCl contraction of samples of thoracic aorta extracted from rats was employed.
1) Method of preparation of samples of thoracic aorta extracted from rats:
The slips of thoracic aorta extracted from a Sprague-Dawry rat was used. The blood vessels were cut to obtain ring-shaped samples having a width of about 3 mm. The endothelial cells of the blood vessel were mechanically removed. The samples were suspended in a strain gage in Tyrode's solution (158.3 mM of NaCl, 4.0 mM of KCl, 1.05 mM of MgCl2, 0.42 mM of NaH2PO4, 10 mM of NaHCO3, 2 mM of CaCl2 and 5 mM of glucose) in which a gaseous mixture of O2 (95%) and CO2 (5%) was introduced. A static tension of 2 g was applied hereto. The tension of the blood vessel was amplified with transducer and a tension amplifier (EF-601G; Nihon Koden Corporation) and recorded with a multi-pen recorder (Rikadenki Kogyo Co., Ltd.). The experiments were conducted at 37° C.
2) Determination of Relaxation After KCl Contraction:
After the tension had been stabilized, the nutrient solution in the sample tank was replaced with High K^+ Tyrode's solution (112.3 mM of NaCl, 50 mM of KCl, 1.05 mM of MgCl2, 0.42 mM of NaH2PO4, 10 mM of NaHCO3, 2 mM of CaCl2 and 5 mM of glucose) to conduct the contraction reaction. 30 minutes after, the solution in the sample tank was replaced with the normal Tyrode's solution. The solution in the sample tank was again replaced with the High K^+ Tyrode's solution and the contraction reaction was observed. After attaining the maximum contraction reaction, the test compound was cumulatively added at intervals of […] to attain concentrations of 10^−7, 10^−6 and 10^−5M. The rate of the test compound to control the maximum contraction reaction was employed as the index of the inhibition activity on L-type calcium channel.

N-type calcium channel [2] = target: T1, N-type calcium channel; experiment: N-type calcium channel antagonistic activity, changed procedure (calcium concentration change in IMR-32 cells, calculated from inhibition rates); assay type: cell-based; conditions: 60 mM KCl stimulation, Table 10, read-out: N-type inhibition pIC50 (converted)
Procedure: as §1, §2
The same procedure as that of the above-described tests was repeated except for the following changes: 60 mM of potassium chloride-containing stimulating agent was rapidly given by the Y-tube method while the calcium concentration change in the cells was examined in terms of N-type calcium channel activity. Then Stimulating agents containing 60 mM of potassium chloride and 0.1, 1 or 10 μM of test compound were successively and rapidly given by the Y-tube method. A change in calcium concentration in the cells was determined.

[3] = Table 9, read-out: L-type inhibition IC50
[4] = Table 10, read-out: L-type inhibition IC50

T1 sequence (Q00975 whole entry): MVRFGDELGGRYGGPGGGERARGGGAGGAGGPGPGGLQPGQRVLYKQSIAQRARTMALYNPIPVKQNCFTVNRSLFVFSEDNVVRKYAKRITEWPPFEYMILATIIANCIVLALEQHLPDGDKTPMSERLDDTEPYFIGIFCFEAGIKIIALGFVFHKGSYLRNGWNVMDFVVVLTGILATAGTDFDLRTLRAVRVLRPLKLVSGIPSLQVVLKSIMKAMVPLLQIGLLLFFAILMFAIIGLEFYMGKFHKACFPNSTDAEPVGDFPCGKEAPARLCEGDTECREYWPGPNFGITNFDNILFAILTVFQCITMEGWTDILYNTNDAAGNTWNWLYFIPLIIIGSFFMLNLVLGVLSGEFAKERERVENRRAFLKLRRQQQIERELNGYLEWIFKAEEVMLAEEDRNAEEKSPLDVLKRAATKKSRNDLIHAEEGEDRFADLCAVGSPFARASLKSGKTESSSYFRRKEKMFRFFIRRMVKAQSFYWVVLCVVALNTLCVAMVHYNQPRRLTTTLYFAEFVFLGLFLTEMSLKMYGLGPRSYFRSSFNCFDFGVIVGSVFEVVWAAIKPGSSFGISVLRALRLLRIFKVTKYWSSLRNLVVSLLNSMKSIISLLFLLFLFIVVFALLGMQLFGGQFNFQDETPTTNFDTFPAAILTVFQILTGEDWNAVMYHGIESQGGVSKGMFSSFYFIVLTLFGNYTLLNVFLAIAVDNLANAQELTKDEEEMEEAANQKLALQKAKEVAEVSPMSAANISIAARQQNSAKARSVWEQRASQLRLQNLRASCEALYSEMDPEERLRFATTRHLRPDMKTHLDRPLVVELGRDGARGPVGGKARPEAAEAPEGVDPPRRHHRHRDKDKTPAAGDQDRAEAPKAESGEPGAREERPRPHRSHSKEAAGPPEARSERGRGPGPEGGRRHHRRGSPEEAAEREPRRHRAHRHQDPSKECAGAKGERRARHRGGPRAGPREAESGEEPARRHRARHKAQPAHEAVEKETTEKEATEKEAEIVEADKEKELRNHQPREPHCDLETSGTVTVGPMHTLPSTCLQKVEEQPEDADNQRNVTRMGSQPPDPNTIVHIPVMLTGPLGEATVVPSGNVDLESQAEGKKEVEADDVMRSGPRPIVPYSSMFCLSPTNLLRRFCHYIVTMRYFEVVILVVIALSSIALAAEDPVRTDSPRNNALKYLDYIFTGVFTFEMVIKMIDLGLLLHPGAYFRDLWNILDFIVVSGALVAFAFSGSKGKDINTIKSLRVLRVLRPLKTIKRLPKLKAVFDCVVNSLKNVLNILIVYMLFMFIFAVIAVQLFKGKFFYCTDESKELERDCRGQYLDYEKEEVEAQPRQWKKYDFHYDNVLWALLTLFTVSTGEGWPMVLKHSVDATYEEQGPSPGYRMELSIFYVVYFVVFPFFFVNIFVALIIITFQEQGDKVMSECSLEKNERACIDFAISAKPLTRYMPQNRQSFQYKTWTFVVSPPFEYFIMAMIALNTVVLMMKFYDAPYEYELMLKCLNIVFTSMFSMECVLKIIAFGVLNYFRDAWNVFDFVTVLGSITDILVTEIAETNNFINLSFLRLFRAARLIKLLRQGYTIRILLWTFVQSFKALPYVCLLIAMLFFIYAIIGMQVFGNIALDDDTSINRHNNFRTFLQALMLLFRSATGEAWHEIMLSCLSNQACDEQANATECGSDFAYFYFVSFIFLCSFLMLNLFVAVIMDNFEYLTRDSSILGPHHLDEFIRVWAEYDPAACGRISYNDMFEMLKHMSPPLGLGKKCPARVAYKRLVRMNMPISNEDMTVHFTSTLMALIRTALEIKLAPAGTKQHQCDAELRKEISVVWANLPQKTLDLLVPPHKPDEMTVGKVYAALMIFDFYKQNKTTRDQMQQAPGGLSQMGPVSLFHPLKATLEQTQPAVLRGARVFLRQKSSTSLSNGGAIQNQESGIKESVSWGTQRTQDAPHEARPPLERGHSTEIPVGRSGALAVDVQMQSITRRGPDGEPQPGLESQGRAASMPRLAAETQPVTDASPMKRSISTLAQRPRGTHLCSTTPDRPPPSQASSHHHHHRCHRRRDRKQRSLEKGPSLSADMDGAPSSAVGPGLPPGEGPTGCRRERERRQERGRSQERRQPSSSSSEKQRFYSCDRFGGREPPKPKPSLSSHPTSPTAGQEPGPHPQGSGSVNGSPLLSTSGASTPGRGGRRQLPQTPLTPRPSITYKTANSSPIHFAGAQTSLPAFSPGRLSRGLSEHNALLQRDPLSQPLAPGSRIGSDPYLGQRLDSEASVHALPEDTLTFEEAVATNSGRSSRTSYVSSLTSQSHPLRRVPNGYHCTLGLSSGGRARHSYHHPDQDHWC
T1 sequence (P54289 25-1103 partner): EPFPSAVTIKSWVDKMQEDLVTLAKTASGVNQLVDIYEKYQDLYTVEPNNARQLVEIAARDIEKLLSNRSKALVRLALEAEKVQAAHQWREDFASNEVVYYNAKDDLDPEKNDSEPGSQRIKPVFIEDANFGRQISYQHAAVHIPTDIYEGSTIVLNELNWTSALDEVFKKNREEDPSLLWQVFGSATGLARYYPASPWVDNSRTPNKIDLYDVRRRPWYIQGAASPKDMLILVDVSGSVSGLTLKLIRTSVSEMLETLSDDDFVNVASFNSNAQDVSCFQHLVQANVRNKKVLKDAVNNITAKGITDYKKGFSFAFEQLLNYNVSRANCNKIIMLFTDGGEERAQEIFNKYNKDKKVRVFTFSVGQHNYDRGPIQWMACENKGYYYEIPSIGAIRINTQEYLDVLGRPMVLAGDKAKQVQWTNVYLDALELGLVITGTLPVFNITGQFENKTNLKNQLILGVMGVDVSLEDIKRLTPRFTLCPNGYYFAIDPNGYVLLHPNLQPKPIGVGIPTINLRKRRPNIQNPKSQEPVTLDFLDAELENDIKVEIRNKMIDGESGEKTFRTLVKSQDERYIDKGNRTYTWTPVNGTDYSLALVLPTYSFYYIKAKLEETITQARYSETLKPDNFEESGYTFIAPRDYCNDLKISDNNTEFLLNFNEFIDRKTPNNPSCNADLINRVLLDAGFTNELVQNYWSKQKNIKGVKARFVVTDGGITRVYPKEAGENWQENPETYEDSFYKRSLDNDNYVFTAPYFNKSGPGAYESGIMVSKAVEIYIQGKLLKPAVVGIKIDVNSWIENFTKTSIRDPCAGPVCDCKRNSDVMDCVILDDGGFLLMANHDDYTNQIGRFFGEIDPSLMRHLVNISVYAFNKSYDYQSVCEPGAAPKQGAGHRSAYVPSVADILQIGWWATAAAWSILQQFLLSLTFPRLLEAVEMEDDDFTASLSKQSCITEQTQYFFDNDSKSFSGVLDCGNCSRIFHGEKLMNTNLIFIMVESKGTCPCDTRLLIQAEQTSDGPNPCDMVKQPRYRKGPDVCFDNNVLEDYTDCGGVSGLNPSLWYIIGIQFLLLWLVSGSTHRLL
T1 sequence (P54284 whole entry partner): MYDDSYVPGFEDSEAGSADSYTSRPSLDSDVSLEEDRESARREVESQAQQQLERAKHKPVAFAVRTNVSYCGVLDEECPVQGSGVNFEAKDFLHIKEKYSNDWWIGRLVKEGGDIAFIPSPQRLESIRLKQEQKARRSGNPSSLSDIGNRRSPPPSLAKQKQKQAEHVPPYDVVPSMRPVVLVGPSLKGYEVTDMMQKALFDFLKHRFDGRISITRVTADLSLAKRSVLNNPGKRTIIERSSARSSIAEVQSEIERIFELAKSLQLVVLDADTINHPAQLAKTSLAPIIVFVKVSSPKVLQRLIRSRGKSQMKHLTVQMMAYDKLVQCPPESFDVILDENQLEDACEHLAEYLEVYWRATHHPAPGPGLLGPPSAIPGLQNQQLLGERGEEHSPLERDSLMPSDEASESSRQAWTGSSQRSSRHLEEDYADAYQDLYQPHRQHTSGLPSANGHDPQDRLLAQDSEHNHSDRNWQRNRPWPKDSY

Row | SMILES | IC50 (N-type calcium channel [1]) [nM] | IC50 (L-type calcium channel; [3]) [nM] | IC50 (N-type calcium channel [2]) [nM] | IC50 (L-type calcium channel; [4]) [nM]
1 | COC(OC)C1=C(C(=O)OCCC(c2ccccc2)c2ccccc2)C(c2cccc(Cl)c2)C(C(=O)O)=C(C)N1 (stereo not shown) [Example 60, 3-(3,3-diphenylpropyl)4-(3-chlorophenyl)-2-dimethoxymethyl-6-methyl-1,4-dihydropyridine-3,5-dicarboxylate] | – | – | 1580 | 3890
2 | COCC1=C(C(=O)OCCC(c2ccccc2)c2ccccc2)C(c2cccc(Cl)c2)C(C(=O)O)=C(C)N1 (stereo not shown) [Example 14, 3-(3,3-diphenylpropane-1-yl)4-(3-chlorophenyl)-2-methoxymethyl-6-methyl-1,4-dihydropyridine-3,5-dicarboxylate] | 1200 | 4280 | 2000 | 4270
3 | CC1=C(C(=O)O)C(c2cccc(Cl)c2)C(C(=O)OCCC(c2ccccc2)c2ccccc2)=C(C(F)(F)F)N1 (stereo not shown) [Example 57, 5-(3,3-diphenylpropyl)4-(3-chlorophenyl)-2-methyl-6-trifluoromethyl-1,4-dihydropyridine-3,5-dicarboxylate] | – | – | 1580 | 1780
4 | CC1=C(C(=O)O)C(c2cccc(Cl)c2)C(C(=O)OCCC(c2ccccc2)c2ccccc2)=C(COCCO)N1 (stereo not shown) [Example 20, 3-(3,3-diphenylpropane-1-yl)4-(3-chlorophenyl)-2-(2-hydroxyethoxymethyl)-6-methyl-1,4-dihydropyridine-3,5-dicarboxylate] | 1780 | 2780 | 3160 | 2880
5 | CC1=C(C(=O)O)C(c2cccc(Cl)c2)C(C(=O)OCCC(c2ccccc2)c2ccccc2)=C(COCCN2CCCCC2)N1 (stereo not shown) [Example 12, 5-(3,3-diphenylpropane-1-yl)4-(3-chlorophenyl)-2-methyl-6-(2-piperidine-1-yl-ethoxymethyl)-1,4-dihydropyridine-3,5-dicarboxylate] | 1580 | 2690 | 3980 | –

The next lines start with the values.

Row | IC50 (N-type calcium channel [1]) [nM] | IC50 (L-type calcium channel; [3]) [nM] | IC50 (N-type calcium channel [2]) [nM] | IC50 (L-type calcium channel; [4]) [nM] | SMILES
6 | 372 | 20800 | – | – | CC1=C(C(=O)OCCC(c2ccccc2)c2ccccc2)C(c2cccc(Cl)c2)C(C(=O)N2CCN(C(=O)OC(C)(C)C)CC2)=C(C)N1 (stereo not shown) [Example 15, t-butyl 4-(4-(3-chlorophenyl)-5-(3,3-diphenylpropoxycarbonyl)-2,6-dimethyl-1,4-dihydropyridine-3-carbonyl)piperazine-1-carboxylate]
7 | – | – | 1580 | 1700 | CC1=C(C(=O)O)C(c2cccc(Cl)c2)C(C(=O)OCCC(c2ccccc2)c2ccccc2)=C(COCCc2cccnc2)N1 (stereo not shown) [Example 33, 5-(3,3-diphenyl-1-propyl)4-(3-chlorophenyl)-2-methyl-6-(2-(3-pyridine)ethoxy)methyl-1,4-dihydropyridine-3,5-dicarboxylate]
8 | – | – | 2000 | 1580 | CC1=C(C(=O)O)C(c2cccc(Cl)c2)C(C(=O)OCCC(c2ccccc2)c2ccccc2)=C(COCCc2ccncc2)N1 (stereo not shown) [Example 54, 5-(3,3-diphenylpropyl)4-(3-chlorophenyl)-2-methyl-6-(2-[pyridine-4-yl]ethoxymethyl)-1,4-dihydropyridine-3,5-dicarboxylate]
9 | 1200 | 1800 | 1580 | 1820 | CC1=C(C(=O)OCCC(c2ccccc2)c2ccccc2)C(c2cccc(Cl)c2)C(C(=O)O)=C(COCCN2CCCCC2)N1 (stereo not shown) [Example 23, 3-(3,3-diphenylpropane-1-yl)4-(3-chlorophenyl)-2-methyl-6-(2-(piperidine-1-yl)ethoxymethyl)-1,4-dihydropyridine-3,5-dicarboxylate]
